# Activity calls are given as the source filed them. The calls are words filed in the database; no cut-off is given here.
# Columns and labels:
# HT-29 [1] = assay: Cytotoxicity against human HT-29 cells assessed as decrease in cell viability incubated for 48 hrs by SRB assay; type: functional, cell-based; conditions: HT-29, 48 h
# HT-29 [2] = assay: Induction of cell cycle arrest in human HT-29 cells assessed as accumulation of cells at G0/G1 phase at 10 uM by RNase/PI staining based flow cytometry analysis (reference value: 50.73 %); type: functional
# HT-29 [3] = assay: Induction of cell cycle arrest in human HT-29 cells assessed as accumulation of cells at G2/M phase at 1 uM by RNase/PI staining based flow cytometry analysis (reference value: 9.93 %); type: functional
# HCT-116 [4] = assay: Induction of apoptosis in human HCT-116 cells assessed as early apoptotic cells at 5 uM incubated for 24 hrs by Annexin V-FITC/PI staining based flow cytometric analysis (reference value: 7.22 %); type: functional
# HCT-116 [5] = assay: Induction of apoptosis in human HCT-116 cells assessed as necrotic cells at 5 uM incubated for 24 hrs by Annexin V-FITC/PI staining based flow cytometric analysis (reference value: 0.69 %); type: functional
# Mus musculus [6] = assay: In vivo inhibition of NFkappaB activation in LPS-induced BALB/c mouse model of endotoxin shock assessed as reduction in IL6 level in serum at 5 mg/kg, ip pretreated for 4 hrs followed by LPS stimulation for 1 hr by ELISA; type: functional, organism-based; conditions: time 5.0 hrs
# HT-29 [7] = assay: Induction of apoptosis in human HT-29 cells assessed as late apoptotic cells at 5 uM incubated for 24 hrs by Annexin V-FITC/PI staining based flow cytometric analysis (reference value: 1.56 %); type: functional
# HCT-116 [8] = assay: Antitumor activity against human HCT-116 cells xenografted in athymic nude BALB/c mouse assessed as reduction in tumor weight at 5 to 15 mg/kg, ip administered every other day and measured every other day for 16 days; type: functional, organism-based; conditions: dose 5-15 mg/kg, time 16.0 day
# [9] = Toxicity in athymic nude BALB/c mouse xenografted with human HCT-116 cells assessed as pathological changes in lungs at 5 to 15 mg/kg, ip administered every other day and measured after 14 days by hematoxylin and eosin staining-based microscopic analysis; type: organism-based; conditions: in vivo, 336 h, dose 5-15 mg/kg, time 14 day
# [10] = target: T1, Nuclear factor NF-kappa-B complex (Homo sapiens) (UniProt Q00653+P19838+Q04206); assay: Inhibition of TNF-alpha induced NFkappaB activation in human HCT-116 cells assessed as inhibition of IkappaBalpha degradation at 1 to 10 uM pretreated for 24 hrs followed by TNFalpha stimulation for 10 mins by Western blot analysis; type: cell-based; conditions: dose 1-10 µM, time 1450.0 min
# [11] = Toxicity in athymic nude BALB/c mouse xenografted with human HCT-116 cells assessed as pathological changes in liver at 5 to 15 mg/kg, ip administered every other day and measured after 14 days by hematoxylin and eosin staining-based microscopic analysis; type: organism-based; conditions: in vivo, 336 h, dose 5-15 mg/kg, time 14 day
# HT-29 [12] = assay: Induction of cell cycle arrest in human HT-29 cells assessed as decrease in P-cdc2 protein expression upto 10 uM incubated for 24 hrs by Western blot analysis; type: functional, cell-based
# [13] = Cmax in Sprague-Dawley rat at 10 mg/kg, iv measured for 5 mins by HPLC-MS/MS analysis; type: ADME, organism-based; parameters: time 5 min, dose 10 mg/kg, route iv; conditions: in vivo
# Cell membrane = assay: Disruption of mitochondrial membrane potential in human HT-29 cells at upto 10 uM measured after 24 hrs by JC-1 staining based fluorescence microscopy; type: subcellular
# RAW264.7 = assay: Inhibition of LPS-induced NFkappaB activation in mouse RAW264.7 cells assessed as inhibition of NO production preincubated for 24 hrs followed by LPS stimulation for 24 hrs; type: cell-based; conditions: dose 0.125-1 µM, time 48.0 hrs
# [14] = target: T1, Nuclear factor NF-kappa-B complex (Homo sapiens); assay: Inhibition of TNF-alpha induced NFkappaB activation in human HT-29 cells assessed as inhibition of IkappaBalpha phosphorylation at 1 to 10 uM pretreated for 24 hrs followed by TNFalpha stimulation for 10 mins by Western blot analysis; type: cell-based; conditions: dose 1-10 µM, time 1450.0 min
# [15] = target: T1, Nuclear factor NF-kappa-B complex (Homo sapiens); assay: Inhibition of TNF-alpha induced NFkappaB activation in human HT-29 cells assessed as downregulation of A20 gene expression pretreated for 24 hrs followed by TNFalpha stimulation and measured after 2 hrs by quantitative RT-PCR analysis; type: cell-based; conditions: dose 1-10 µM, time 26.0 hrs
# HCT-116 [16] = assay: Induction of apoptosis in human HCT-116 cells assessed as early apoptotic cells at 5 uM incubated for 24 hrs by Annexin V-FITC/PI staining based flow cytometric analysis (reference value: 8.06 %); type: functional
# [17] = Toxicity in athymic nude BALB/c mouse assessed as change in serum creatine kinase level at 5 to 15 mg/kg, ip administered every other day and measured after 14 days; type: organism-based; conditions: in vivo, 336 h, dose 5-15 mg/kg, time 14 day
# HT-29 [18] = assay: Induction of apoptosis in human HT-29 cells assessed as late apoptotic cells at 5 uM incubated for 24 hrs by Annexin V-FITC/PI staining based flow cytometric analysis (reference value: 6.91 %); type: functional
# Mus musculus [19] = assay: In vivo inhibition of NFkappaB activation in athymic BALB/c mouse xenografted with human HCT-116 cells assessed as reduction in A20 gene expression in tumor at 15 mg/kg, ip administered every other day and measured after 14 days by qRT-PCR analysis; type: functional, organism-based; conditions: time 14.0 day
# HCT-116 [20] = assay: Induction of apoptosis in human HCT-116 cells assessed as inhibition of caspase 3 protein expression measured for 24 hrs by Western blot analysis; type: functional, cell-based; conditions: dose 0-10 µM
# HT-29 [21] = assay: Induction of autophagic flux in human HT-29 cells assessed as increase in LC3 protein expression preincubated with 3-methyladenine for 1 hr followed by compound addition and measured after 24 hrs by Western blot analysis; type: functional, cell-based
# [22] = Toxicity in athymic nude BALB/c mouse assessed as change in serum AKP level at 5 to 15 mg/kg, ip administered every other day and measured after 14 days; type: organism-based; conditions: in vivo, 336 h, dose 5-15 mg/kg, time 14 day
# Mus musculus [23] = assay: In vivo inhibition of NFkappaB activation in athymic BALB/c mouse xenografted with human HT-29 cells assessed as reduction in IL-8 gene expression in tumor at 5 to 15 mg/kg, ip administered every other day and measured after 14 days by qRT-PCR analysis; type: functional, organism-based; conditions: dose 5-15 mg/kg, time 14.0 day
# [24] = Toxicity in athymic nude BALB/c mouse xenografted with human HCT-116 cells assessed as pathological changes in kidney at 5 to 15 mg/kg, ip administered every other day and measured after 14 days by hematoxylin and eosin staining-based microscopic analysis; type: organism-based; conditions: in vivo, 336 h, dose 5-15 mg/kg, time 14 day
# HT-29 [25] = assay: Induction of apoptosis in human HT-29 cells assessed as necrotic cells at 5 uM incubated for 24 hrs by Annexin V-FITC/PI staining based flow cytometric analysis (reference value: 0.14 %); type: functional
# HCT-116 [26] = assay: Induction of apoptosis in human HCT-116 cells assessed as late apoptotic cells at 5 uM incubated for 24 hrs by Annexin V-FITC/PI staining based flow cytometric analysis (reference value: 16.9 %); type: functional
# HT-29 [27] = assay: Cytotoxicity against human HT-29 cells assessed as inhibition of cell growth by SRB assay; type: functional, cell-based; conditions: time 24-48 hrs, TDE = time-dependent effect
# [28] = target: T1, Nuclear factor NF-kappa-B complex (Homo sapiens); assay: Inhibition of TNF-alpha induced NFkappaB activation in human HCT-116 cells assessed as downregulation of E-selectin gene expression pretreated for 24 hrs followed by TNFalpha stimulation and measured after 2 hrs by quantitative RT-PCR analysis; type: cell-based; conditions: dose 1-10 µM, time 26.0 hrs
# T1 sequence (P19838 whole entry, looked up): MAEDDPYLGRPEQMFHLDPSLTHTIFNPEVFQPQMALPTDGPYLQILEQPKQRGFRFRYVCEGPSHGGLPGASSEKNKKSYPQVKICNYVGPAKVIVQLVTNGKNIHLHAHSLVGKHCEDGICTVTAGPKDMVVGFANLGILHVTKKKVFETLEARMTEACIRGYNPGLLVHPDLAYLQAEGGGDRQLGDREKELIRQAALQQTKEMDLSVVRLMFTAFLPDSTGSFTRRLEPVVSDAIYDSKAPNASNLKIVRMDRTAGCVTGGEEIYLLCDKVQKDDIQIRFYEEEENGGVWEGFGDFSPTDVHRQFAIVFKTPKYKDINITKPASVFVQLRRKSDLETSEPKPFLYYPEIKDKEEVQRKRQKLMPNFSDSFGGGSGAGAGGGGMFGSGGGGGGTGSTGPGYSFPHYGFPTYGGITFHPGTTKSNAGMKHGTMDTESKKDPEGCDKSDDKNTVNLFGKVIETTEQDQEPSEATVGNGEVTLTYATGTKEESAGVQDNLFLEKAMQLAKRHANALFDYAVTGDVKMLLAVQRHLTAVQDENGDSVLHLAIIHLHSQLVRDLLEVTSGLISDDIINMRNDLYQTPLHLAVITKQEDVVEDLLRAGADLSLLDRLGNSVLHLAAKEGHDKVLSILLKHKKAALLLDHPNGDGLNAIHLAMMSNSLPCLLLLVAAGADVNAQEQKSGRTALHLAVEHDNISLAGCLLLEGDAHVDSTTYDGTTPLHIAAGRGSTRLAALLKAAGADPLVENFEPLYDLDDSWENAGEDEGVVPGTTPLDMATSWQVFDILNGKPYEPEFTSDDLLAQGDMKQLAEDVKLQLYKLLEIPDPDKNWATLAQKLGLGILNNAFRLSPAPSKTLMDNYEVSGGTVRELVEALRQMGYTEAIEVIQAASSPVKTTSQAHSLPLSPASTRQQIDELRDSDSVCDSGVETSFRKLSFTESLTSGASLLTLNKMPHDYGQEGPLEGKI
# T1 sequence (Q00653 whole entry, looked up): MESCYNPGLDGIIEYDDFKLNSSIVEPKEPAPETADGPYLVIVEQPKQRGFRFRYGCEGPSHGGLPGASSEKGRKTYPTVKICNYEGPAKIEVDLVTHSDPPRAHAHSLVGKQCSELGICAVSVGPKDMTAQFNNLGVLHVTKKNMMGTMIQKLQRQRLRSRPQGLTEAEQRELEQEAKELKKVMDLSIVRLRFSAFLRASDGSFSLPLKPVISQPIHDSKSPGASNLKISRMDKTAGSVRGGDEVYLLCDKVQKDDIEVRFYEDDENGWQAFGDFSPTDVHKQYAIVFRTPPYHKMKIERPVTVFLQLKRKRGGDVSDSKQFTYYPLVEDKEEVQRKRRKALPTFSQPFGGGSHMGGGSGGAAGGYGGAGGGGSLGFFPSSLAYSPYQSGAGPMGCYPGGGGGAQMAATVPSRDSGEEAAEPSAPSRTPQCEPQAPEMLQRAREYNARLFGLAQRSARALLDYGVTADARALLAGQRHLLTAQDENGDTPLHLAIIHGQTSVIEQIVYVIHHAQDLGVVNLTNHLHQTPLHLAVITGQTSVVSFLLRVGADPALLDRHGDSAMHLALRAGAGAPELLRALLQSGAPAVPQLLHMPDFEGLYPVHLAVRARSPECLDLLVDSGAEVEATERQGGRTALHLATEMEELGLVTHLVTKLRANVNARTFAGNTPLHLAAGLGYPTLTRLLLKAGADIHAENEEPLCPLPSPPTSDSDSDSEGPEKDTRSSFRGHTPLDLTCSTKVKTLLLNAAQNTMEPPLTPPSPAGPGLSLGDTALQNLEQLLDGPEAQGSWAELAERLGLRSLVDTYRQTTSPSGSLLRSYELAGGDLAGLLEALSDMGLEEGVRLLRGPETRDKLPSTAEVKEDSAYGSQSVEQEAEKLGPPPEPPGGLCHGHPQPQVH
# T1 sequence (Q04206 whole entry, looked up): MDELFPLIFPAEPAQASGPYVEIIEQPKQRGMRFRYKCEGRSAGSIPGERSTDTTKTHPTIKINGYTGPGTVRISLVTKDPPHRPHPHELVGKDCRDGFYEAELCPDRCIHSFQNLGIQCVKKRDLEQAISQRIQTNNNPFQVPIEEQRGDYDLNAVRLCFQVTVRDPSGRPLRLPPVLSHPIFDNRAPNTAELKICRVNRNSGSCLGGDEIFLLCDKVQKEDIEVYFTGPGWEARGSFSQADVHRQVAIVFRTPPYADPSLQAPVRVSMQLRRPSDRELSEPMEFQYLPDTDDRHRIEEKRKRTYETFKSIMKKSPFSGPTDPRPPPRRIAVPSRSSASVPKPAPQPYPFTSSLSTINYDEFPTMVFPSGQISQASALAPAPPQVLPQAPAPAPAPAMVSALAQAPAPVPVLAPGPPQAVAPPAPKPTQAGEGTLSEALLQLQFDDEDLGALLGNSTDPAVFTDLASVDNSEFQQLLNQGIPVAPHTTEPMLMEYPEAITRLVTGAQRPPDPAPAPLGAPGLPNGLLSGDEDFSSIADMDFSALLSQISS
smiles,measurement,setting,value
C[C@@H]1CC[C@H]2[C@H](C(=O)c3c(O)c([C@@]4(O)CC[C@@H](O)[C@H]5O[C@H]54)cn(O)c3=O)[C@H](C)C=C[C@@H]2C1,IC50,HT-29 [1],570 nM
same,Activity,HT-29 [2],72.58%
same,Activity,HT-29 [3],7.08%
same,Activity,HCT-116 [4],16.2%
same,Activity,HCT-116 [5],0.52%
same,inhibition,Mus musculus [6],Active
same,Activity,HT-29 [7],4.04%
same,Activity,HCT-116 [8],Active
same,Activity,[9],Non-Toxic
same,inhibition,[10],Active
same,Activity,[11],Non-Toxic
same,Activity,HT-29 [12],Active
same,Cmax,[13],13200 ng/mL
same,Activity,Cell membrane,Active
same,inhibition,RAW264.7,Dose-Dependent Effect
same,inhibition,[14],Active
same,inhibition,[15],Dose-Dependent Effect
same,Activity,HCT-116 [16],5.47%
same,Activity,[17],Non-Toxic
same,Activity,HT-29 [18],21.9%
same,inhibition,Mus musculus [19],Active
same,Activity,HCT-116 [20],Dose-Dependent Effect
same,Activity,HT-29 [21],Active
same,Activity,[22],Non-Toxic
same,inhibition,Mus musculus [23],Active
same,Activity,[24],Non-Toxic
same,Activity,HT-29 [25],0.22%
same,Activity,HCT-116 [26],78.5%
same,Activity,HT-29 [27],Tde
same,inhibition,[28],Dose-Dependent Effect

# Reference: ChEMBL document CHEMBL5390201, “The Natural Alkaloid (-)-N-Hydroxyapiosporamide Suppresses Colorectal Tumor Progression as an NF-κB Pathway Inhibitor by Targeting the TAK1-TRAF6 Complex” (J Nat Prod, 2023)
